Measurements from patent EP0158267A2, “Pharmaceutical composition containing 5-(2-fluorophenyl)-1,3-dihydro-3-hydroxy-7-nitro- or 5-(2-fluorophenyl)-1,3-dihydro-3-hydroxy-1-methyl-7-nitro-2H-1,4-benzodiazepin-2-one and process for their preparation” (Dolorgiet Beteiligungs-GmbH, priority 1984, dated 1985).

Legend:
Maus [1] = experiment: Prolongation of hexobarbital sleeping time (barbiturate narcosis, method of Fujimoto et al.); format: in vivo; conditions: for Verlängerung der Schlaf-zeit in % bei der Maus nach peroraler Gabe von 1mg/kg KG.: mouse, 1 mg/kg p.o., 30 min before 80 mg/kg hexobarbital i.v., versus control group; for schlafverlängernde Wirkung: statement in words
Protocol: (1) Verlängerung der Schlafzeit
Die Wirkung auf die Barbiturat-Narkose wurde in der Versuchsanordnung von J.M. Fujimoto et al. (J. Pharmacol. Exp. Ther. 129, 1960, 139) nachgewiesen. Gruppen von jeweils 10 männlichen Mäusen wurden die Testsubstanzen als Suspension in wässriger Carboxymethylcellulose mittels einer Stahlsonde auf oralem Weg direkt in den Magen verabreicht. 30 Minuten später wurde den Tieren 80 mg/kg Hexobarbital in eine Schwanzvene injiziert. Es wurde die Dauer des Schlafs gemessen und aus den Schlafzeiten der einzelnen Tiere der Kontroll-und Dosisgruppen die jeweiligen Mittelwerte berechnet. Die Verlängerung der Schlafzeit wurde in Prozent gegenüber der Kontrollgruppe berechnet.

Maus [2] = experiment: Acute toxicity, oral, 7 days observation (Litchfield and Wilcoxon); format: in vivo; conditions: for Zustand nach 24 h: mouse, oral, condition of animals 24 h after dosing; for Toxizität / Zustand der überlebenden Tiere: statement in words; for Zustand der überlebenden Tiere: findings above the dose without findings
Description: (§1) Für diesen Versuch wurden je 10 männliche und weibliche Mäuse verwendet. Die Testsubstanzen wurden als Suspension in wässriger Carboxymethylcellulose per Magensonde verabreicht. Die Beobachtungszeit betrug 7 Tage. Die Ergebnisse wurden nach der Methode von G.T. Litchfield und F.G. Wilcoxon (J. Pharmacol. Exp. Ther. 96, 1949, 99) errechnet. Die Ergebnisse sind in der nachfolgenden Tabelle zusammengestellt.

[3] = as above; format: in vivo, Maus; conditions: in vivo; mouse, oral, 7 days observation; * = highest technically applicable dose; read-out: Akute Toxi-zität LD50 mg/kg KG. Maus oral
Description: as §1

[4] = Sleep induction (onset), no method described; format: in vivo; conditions: statement in words
Maus [5] = experiment: Fighting test: inhibition of current-induced fighting (method of Tedeschi et al.); format: in vivo; conditions: statement in words; for tranquillisierende Wirkung im Kampftest: DP 327 compared with Flunitrazepam
Description: Die Hemmwirkung gegenüber strominduzierter Kampfhandlungen bei Mäusen wurde in der Versuchsanordnung von R. Tedeschi et al. (J. Pharmacol. Exp. Ther. 125, 1959, 28) ermittelt. 10 Paare weiblicher Mäuse werden am Vortag des Versuches 3 Minuten elektrischen Stromstößen von 3,5 mA, 5 Hz und 5 msec ausgesetzt. Am Versuchstag werden die Testsubstanzen als Suspension in wässriger Carboxymethylcellulose mittels Magensonde peroral verabreicht. 30 Minuten nach der Verabreichung werden jeweils ein Paar in einem Testkäfig wieder den Stromstößen ausgesetzt und die innerhalb von 3 Minuten ausgelösten Kampfhandlungen gezählt. Die Zahl der Kampfhandlungen der jeweiligen Dosisgruppen werden addiert und in Prozent gegenüber der Kontrollgruppe berechnet. Der ED50-Wert wurde mittels halblogarithmischer Regression aus den Dosis-Wirkungsbeziehungen bestimmt.

[6] = DP 327 compared with Flunitrazepam, Beispiel 12 of DE-OS 14 45 873 compared with DP 327

SMILES | Verlängerung der Schlaf-zeit in % bei der Maus nach peroraler Gabe von 1mg/kg KG. (Maus [1]) | schlafverlängernde Wirkung (Maus [1]; [6]) | Zustand nach 24 h (Maus [2]) | Toxizität (Maus [2]) | LD50 at 168 h [3] | Schlafinduktion [4] | schlafverlängernde Wirkung (Maus [1]; compared with Lormetazepam) | Toxizität (Maus [2]; compared with Lormetazepam) | Zustand der überlebenden Tiere (Maus [2]) | Todesfälle (Maus [2]; up to the highest applicable dose of 8687 mg/kg) | tranquillisierende Wirkung (Maus [5]; compared with Lormetazepam) | tranquillisierende Wirkung im Kampftest (Maus [5])
CN1C(=O)C(O)N=C(c2ccccc2)c2cc([N+](=O)[O-])ccc21 (centres unmarked) [DE-OS 14 45 873 Beispiel 12, reference compound] | 99% | geringerer schlafverlängernder Wirkung | bis 3200 mg/kg ohne Befund; ab 3200 mg/kg starke Sedierung, Koma. | toxischer als DP 327 | 4700 mg/kg |  |  |  |  |  |  | 
CN1C(=O)C(O)N=C(c2ccccc2F)c2cc([N+](=O)[O-])ccc21 (centres unmarked) [DP 327, 5-(2-Fluorphenyl)-1,3-dihydro-3-hydroxy-1-methyl-7-nitro-2H-1,4-benzodiazepin-2-on] | 156% | gleichwertig | bis 3600 mg/kg ohne Befund; 4824-8687 mg/kg leichte Sedierung. | sehr wenig toxisch | > 8690 mg/kg | rasche Schlafinduktion | deutlich überlegen | deutlich überlegen | nur eine leichte Sedierung und Stereotypie | nur vereinzelt Todesfälle | deutlich überlegen | etwa doppelt so starke tranquillisierende Wirkung
O=C1Nc2ccc([N+](=O)[O-])cc2C(c2ccccc2F)=NC1O (centres unmarked) [DP 370, 5-(2-Fluorphenyl)-1,3-dihydro-3-hydroxy-7-nitro-2H-1,4-benzodiazepin-2-on] | 118% | gute schlafverlängerde Wirkung | bis 4640 mg/kg ohne Befund; ab 4640 mg/kg leichte Sedierung Sedierung, und Ataxie. | wesentlich geringeren Toxizität als die genannten Vergleichssubstanzen | > 10000 mg/kg |  |  |  |  |  |  | gute tranquillisierende
CN1C(=O)CN=C(c2ccccc2F)c2cc([N+](=O)[O-])ccc21 [Flunitrazepam, 5-(2-Fluorphenyl)-1,3-dihydro-1-methyl-7-nitro-2H-1,4-benzodiazepin-2-on, reference compound] | 179% |  | bis 1100 mg/kg ohne Befund; ab 1100 mg/kg starke Sedierung, Koma, Stereotypie. |  | 2700 mg/kg | langsam einsetzt |  |  | von starker Sedierung und Stereotypie bis zum Koma |  |  | 
CN1C(=O)C(O)N=C(c2ccccc2Cl)c2cc(Cl)ccc21 (centres unmarked) [Lormetazepam, 7-Chlor-5-(2-chlorphenyl)-1,3-dihydro-3-hydroxy-1-methyl-2H-1,4-benzodiazepin-2-on, reference compound] | 78% |  | 900-1240 mg/kg leichte Sedierung; ab 1700 mg/kg zunehmend starke Sedierung. |  | 6300 mg/kg | fehlt |  |  |  |  |  | 
